Columns and labels:
Format in all cases: cell-based
[1] = system: Mycosphaerella graminicola (Septoria tritici); assay: Mycosphaerella graminicola (Septoria tritici) / liquid culture (Septoria blotch); conditions: Zymoseptoria tritici, growth inhibition photometrically 4 to 5 days after application, read-out: control of Mycosphaerella graminicola
Description: (§1) Example B12: Mycosphaerella graminicola (Septoria tritici)/Liquid Culture (Septoria Blotch) Conidia of the fungus from cryogenic storage are directly mixed into nutrient broth (PDB potato dextrose broth). After placing a (DMSO) solution of test compound into a microtiter plate (96-well format), the nutrient broth containing the fungal spores is added. The test plates are incubated at 24° C. and the inhibition of growth is determined photometrically 4 to 5 days after application.

[2] = system: Monographella nivalis (Microdochium nivale); assay: Monographella nivalis (Microdochium nivale) / liquid culture (foot rot cereals); conditions: growth inhibition photometrically 4 to 5 days after application, read-out: control of Monographella nivalis
Description: as §1, with “B5: Monographella nivalis (Microdochium nivale)/Liquid” for “B12: Mycosphaerella graminicola (Septoria tritici)/Liquid”, “(Foot Rot Cereals)” for “(Septoria Blotch)”

[3] = system: Mycosphaerella arachidis (Cercospora arachidicola); assay: Mycosphaerella arachidis (Cercospora arachidicola) / liquid culture (early leaf spot); conditions: growth inhibition photometrically 4 to 5 days after application, read-out: control of Mycosphaerella arachidis
Description: as §1, with “B6:” for “B12:”, “arachidis (Cercospora arachidicola)/Liquid” for “graminicola (Septoria tritici)/Liquid”, “(Early Leaf Spot)” for “(Septoria Blotch)”

| SMILES | inhibition of growth at 20 ppm [1] | inhibition of growth at 20 ppm [2] | inhibition of growth at 20 ppm [3] |
| --- | --- | --- | --- |
| Cc1cncc(C2CN(C(=O)c3cc(-c4ccc(F)cc4F)on3)Cc3ccccc32)c1 (stereo not drawn) [Compound P-22, [5-(2,4-difluorophenyl)isoxazol-3-yl]-[4-(5-methyl-3-pyridyl)-3,4-dihydro-1H-isoquinolin-2-yl]methanone] | ≥ 80% |  |  |
| Cc1c(C2CN(C(=O)c3nnc(-c4ccc(F)cc4F)s3)Cc3ccccc32)cc(C#N)n1C (stereo not drawn) [Compound P-28, 4-[2-(5-(2,4-difluorophenyl)-1,3,4-thiadiazole-2-carbonyl]-3,4-dihydro-1H-isoquinolin-4-yl]-1,5-dimethyl-pyrrole-2-carbonitrile] | ≥ 80% |  |  |
| Cc1ncc(C2CN(C(=O)c3cc(-c4ccc(F)cc4F)on3)Cc3ccccc32)cc1Cl (stereo not drawn) [Compound P-23, [4-(5-chloro-6-methyl-3-pyridyl)-3,4-dihydro-1H-isoquinolin-2-yl]-[5-(2,4-difluorophenyl)isoxazol-3-yl]methanone] | ≥ 80% |  |  |
| Cc1c(C2CN(C(=O)c3cc(-c4ccc(F)cc4)on3)Cc3ccccc32)cc(C#N)n1C (stereo not drawn) [Compound P-18, 4-[2-[5-(4-fluorophenyl)isoxazole-3-carbonyl]-3,4-dihydro-1H-isoquinolin-4-yl]-1,5-dimethyl-pyrrole-2-carbonitrile] | ≥ 80% |  |  |
| Cc1ncc(C2CN(C(=O)c3cc(-c4ccccc4)on3)Cc3ccccc32)cc1Cl (stereo not drawn) [Compound P-29, [4-(5-chloro-6-methyl-3-pyridyl)-3,4-dihydro-1H-isoquinolin-2-yl]-(5-phenylisoxazol-3-yl)methanone] | ≥ 80% |  |  |
| Cn1nc(C2CN(C(=O)c3cc(-c4ccc(F)cc4F)on3)Cc3ccccc32)cc1Br (stereo not drawn) [Compound P-21, [4-(5-bromo-1-methyl-pyrazol-3-yl)-3,4-dihydro-1H-isoquinolin-2-yl]-[5-(2,4-difluorophenyl)isoxazol-3-yl]methanone] | ≥ 80% |  |  |
| Cn1cnc(C2CN(C(=O)c3cc(-c4ccc(F)cc4F)on3)Cc3ccccc32)n1 (stereo not drawn) [Compound P-33, [5-(2,4-difluorophenyl)isoxazol-3-yl]-[4-(1-methyl-1,2,4-triazol-3-yl)-3,4-dihydro-1H-isoquinolin-2-yl]methanone] | ≥ 80% |  |  |
| Cc1c(C2CN(C(=O)c3cc(-c4ccc(F)cc4F)on3)Cc3ccccc32)nc(Cl)n1C (stereo not drawn) [Compound P-16, [4-(2-chloro-1,5-dimethyl-imidazol-4-yl)-3,4-dihydro-1H-isoquinolin-2-yl]-[5-(2,4-difluorophenyl)isoxazol-3-yl]methanone] | ≥ 80% |  |  |
| Cc1ccc(C2CN(C(=O)c3cc(-c4ccc(F)cc4F)on3)Cc3ccccc32)cn1 (stereo not drawn) [Compound P-3, [5-(2,4-difluorophenyl)isoxazol-3-yl]-[4-(6-methyl-3-pyridyl)-3,4-dihydro-1H-isoquinolin-2-yl]methanone] | ≥ 80% | ≥ 80% | ≥ 80% |
| Cc1nc(C2CN(C(=O)c3cc(-c4ccc(F)cc4F)on3)Cc3ccccc32)nn1C (stereo not drawn) [Compound P-39, [5-(2,4-difluorophenyl)isoxazol-3-yl]-[4-(1,5-dimethyl-1,2,4-triazol-3-yl)-3,4-dihydro-1H-isoquinolin-2-yl]methanone] | ≥ 80% |  |  |
| Cc1c(C2CN(C(=O)c3cc(-c4ccccc4)on3)Cc3ccccc32)cc(C#N)n1C (stereo not drawn) [Compound P-26, 1,5-dimethyl-4-[2-(5-phenylisoxazole-3-carbonyl)-3,4-dihydro-1H-isoquinolin-4-yl]pyrrole-2-carbonitrile] | ≥ 80% |  |  |
| O=C(c1cc(-c2ccc(F)cc2F)on1)N1Cc2ccccc2C(c2cccnn2)C1 (stereo not drawn) [Compound P-36, [5-(2,4-difluorophenyl)isoxazol-3-yl]-(4-pyridazin-3-yl-3,4-dihydro-1H-isoquinolin-2-yl)methanone] | ≥ 80% |  |  |
| Cc1ccncc1C1CN(C(=O)c2cc(-c3ccc(F)cc3F)on2)Cc2ccccc21 (stereo not drawn) [Compound P-14, [5-(2,4-difluorophenyl)isoxazol-3-yl]-[4-(4-methyl-3-pyridyl)-3,4-dihydro-1H-isoquinolin-2-yl]methanone] | ≥ 80% |  | ≥ 80% |
| O=C(c1cc(-c2ccccc2)on1)N1Cc2ccccc2C(c2cnccc2Cl)C1 (stereo not drawn) [Compound P-30, [4-(4-chloro-3-pyridyl)-3,4-dihydro-1H-isoquinolin-2-yl]-(5-phenylisoxazol-3-yl)methanone] | ≥ 80% |  |  |
| Cc1nc(C2CN(C(=O)c3cc(-c4ccccc4)on3)Cc3ccccc32)c(Cl)n1C (stereo not drawn) [Compound P-31, [4-(5-chloro-1,2-dimethyl-imidazol-4-yl)-3,4-dihydro-1H-isoquinolin-2-yl]-(5-phenylisoxazol-3-yl)methanone] | ≥ 80% |  |  |
| O=C(c1cc(-c2ccccc2)on1)N1Cc2ccccc2C(c2ccc(F)nc2)C1 (stereo not drawn) [Compound P-34, [4-(6-fluoro-3-pyridyl)-3,4-dihydro-1H-isoquinolin-2-yl]-(5-phenylisoxazol-3-yl)methanone] | ≥ 80% |  |  |
| Cc1ncccc1C1CN(C(=O)c2cc(-c3ccc(F)cc3F)on2)Cc2ccccc21 (stereo not drawn) [Compound P-13, [5-(2,4-difluorophenyl)isoxazol-3-yl]-[4-(2-methyl-3-pyridyl)-3,4-dihydro-1H-isoquinolin-2-yl]methanone] | ≥ 80% |  | ≥ 80% |
| Cc1c(C2CN(C(=O)c3nnc(-c4ccc(F)cc4F)s3)Cc3ccccc32)nc(Cl)n1C (stereo not drawn) [Compound P-11, [4-(2-chloro-1,5-dimethyl-imidazol-4-yl)-3,4-dihydro-1H-isoquinolin-2-yl]-[5-(2,4-difluorophenyl)-1,3,4-thiadiazol-2-yl]methanone] | ≥ 80% |  | ≥ 80% |
| O=C(c1cc(-c2ccc(F)cc2F)on1)N1Cc2ccccc2C(c2cnccc2Cl)C1 (stereo not drawn) [Compound P-24, [4-(4-chloro-3-pyridyl)-3,4-dihydro-1H-isoquinolin-2-yl]-[5-(2,4-difluorophenyl)isoxazol-3-yl]methanone] | ≥ 80% |  |  |
| CC1(c2cccnc2)CN(C(=O)c2cc(-c3ccc(F)cc3F)on2)Cc2ccccc21 (stereo not drawn) [Compound P-27, [5-(2,4-difluorophenyl)isoxazol-3-yl]-[4-methyl-4-(3-pyridyl)-1,3-dihydroisoquinolin-2-yl]methanone] | ≥ 80% |  |  |
| Cc1c(C2CN(C(=O)c3cc(-c4ccc(F)cc4F)on3)Cc3ccccc32)cc(C#N)n1C (stereo not drawn) [Compound P-20, 4-[2-[5-(2,4-difluorophenyl)isoxazole-3-carbonyl]-3,4-dihydro-1H-isoquinolin-4-yl]-1,5-dimethyl-pyrrole-2-carbonitrile] | ≥ 80% |  |  |
| Cc1nc(C2CN(C(=O)c3cc(-c4ccc(F)cc4F)on3)Cc3ccccc32)no1 (stereo not drawn) [Compound P-25, [5-(2,4-difluorophenyl)isoxazol-3-yl]-[4-(5-methyl-1,2,4-oxadiazol-3-yl)-3,4-dihydro-1H-isoquinolin-2-yl]methanone] | ≥ 80% |  |  |
| O=C(c1cc(-c2ccc(F)cc2F)on1)N1Cc2ccccc2C(c2ccccn2)C1 (stereo not drawn) [Compound P-15, [5-(2,4-difluorophenyl)isoxazol-3-yl]-[4-(2-pyridyl)-3,4-dihydro-1H-isoquinolin-2-yl]methanone] | ≥ 80% | ≥ 80% |  |
| CC1(c2cccnc2)CN(C(=O)c2cc(-c3ccccc3)on2)Cc2ccccc21 (stereo not drawn) [Compound P-32, [4-methyl-4-(3-pyridyl)-1,3-dihydroisoquinolin-2-yl]-(5-phenylisoxazol-3-yl)methanone] | ≥ 80% |  |  |
| Cc1nc(C2CN(C(=O)c3cc(-c4ccc(F)cc4F)on3)Cc3ccccc32)c(Cl)n1C (stereo not drawn) [Compound P-17, [4-(5-chloro-1,2-dimethyl-imidazol-4-yl)-3,4-dihydro-1H-isoquinolin-2-yl]-[5-(2,4-difluorophenyl)isoxazol-3-yl]methanone] | ≥ 80% |  |  |
| O=C(c1cc(-c2ccc(F)cc2F)on1)N1Cc2ccccc2C(c2ccc(F)nc2)C1 (stereo not drawn) [Compound P-12, [5-(2,4-difluorophenyl)isoxazol-3-yl]-[4-(6-fluoro-3-pyridyl)-3,4-dihydro-1H-isoquinolin-2-yl]methanone] | ≥ 80% | ≥ 80% |  |
| Cn1cc(C2CN(C(=O)c3cc(-c4ccc(F)cc4F)on3)Cc3ccccc32)nn1 (stereo not drawn) [Compound P-35, [5-(2,4-difluorophenyl)isoxazol-3-yl]-[4-(1-methyltriazol-4-yl)-3,4-dihydro-1H-isoquinolin-2-yl]methanone] | ≥ 80% |  |  |
| Cn1c(Cl)nc(C2CN(C(=O)c3cc(-c4ccc(F)cc4F)on3)Cc3ccccc32)c1Cl (stereo not drawn) [Compound P-10, [4-(2,5-dichloro-1-methyl-imidazol-4-yl)-3,4-dihydro-1H-isoquinolin-2-yl]-[5-(2,4-difluorophenyl)isoxazol-3-yl]methanone] | ≥ 80% |  | ≥ 80% |

Source: patent publication US20260200905A1, “MICROBIOCIDAL TETRAHYDROISOQUINOLINE DERIVATIVES” (SYNGENTA CROP PROTECTION AG, priority 2022, published 2026)
